Here are results for 3 compounds from patent publication US10301325B2, “Quinoline derivative, and pharmaceutical composition, preparation method and use thereof” (SHANGHAI HAIJU BIOLOGICAL TECHNOLOGY CO., LTD., priority 2015, dated 2019).

The test system of test [1] is human gastric cancer cells SNU-5 with high expression of c-Met. Put plainly: c-Met cell proliferation inhibition test (CCK-8, 72 hours). It is filed as cell-based. The note with it: SNU-5 cells. As for the experimental part: The inhibitory activity of the test compound on proliferation of human gastric cancer cells SNU-5 with high expression of c-Met was determined through the following in vitro cell assay, and the activity can be expressed by IC50 value. Specific experimental method can refer to Neru Munshi, Sebastien Jeay, Youzhi Li, et al., ARQ 197, a Novel and Selective Inhibitor of the Human c-Met Receptor Tyrosine Kinase with Antitumor Activity. Mol Cancer Ther 2010; 9:1544-1553, the content of which is incorporated herein by reference in its entirety. The general method is as follows: first, human tumor cells SNU-5 (purchased from the Institute of Biochemistry and Cell Biology) with high expression of c-Met was selected and inoculated on a 96-well culture plate at a suitable cell concentration (e.g., 5000 cells/ml culture medium), then they were diluted with IMDM culture medium containing 2% FBS to form a series of test compound solutions at gradient concentrations (generally 6 to 7 concentrations) and continuously incubated for 72 hours. After 72 hours, the activity of the test compound on inhibiting cell proliferation could be determined using the Cell Counting Kit-8 (CCK-8, purchased from DojinDo) method. The IC50 value can be calculated from the inhibitory values on cell proliferation of the test compound at a series of different concentrations.

Another test concerns the target c-Met kinase (Homo sapiens, UniProt P08581). Put plainly: c-Met kinase activity assay (HTRF). The class given is biochemical. The note with it: c-Met kinase from Carna Biosciences, read-out: IC50 (c-Met/BIO). As for the experimental part:
The inhibitory ability of the compounds of the present invention on c-Met kinase activity was determined by Homogeneous Time-Resolved Fluorescence (HTRF), and was expressed by the median inhibitory concentration IC50 value of the compounds. The method was as follows: a series of compounds with gradient concentration were incubated with a specific concentration of the enzyme solution for 5 minutes at room temperature, after which an appropriate amount of enzyme reaction substrate and ATP were added to start the enzyme reaction process. After 30 minutes, an appropriate amount of stop solution and detection solution were added, and the mixture was incubated for 1 hour. Then, the enzyme activity at specific compound concentrations was measured at wavelengths of 665 nm and 620 nm on Envision 2104 Multilabel Microcell Detector of PerkinElmer Company, and the inhibitory activity of the compound at different concentrations on enzyme activity was calculated, then the result was fitted to calculate the IC50 value. The c-Met kinase used in this embodiment was purchased from Carna Biosciences, the test kit HTRF KinEASE-TK was purchased from Cisbio Bioassays Company, and ATP was purchased from Sigma Aldrich Company.
A general note: TR-FRET usually uses a lanthanide donor and a delayed reading to cut background.

c-Met kinase, sequence (P08581 25-1390): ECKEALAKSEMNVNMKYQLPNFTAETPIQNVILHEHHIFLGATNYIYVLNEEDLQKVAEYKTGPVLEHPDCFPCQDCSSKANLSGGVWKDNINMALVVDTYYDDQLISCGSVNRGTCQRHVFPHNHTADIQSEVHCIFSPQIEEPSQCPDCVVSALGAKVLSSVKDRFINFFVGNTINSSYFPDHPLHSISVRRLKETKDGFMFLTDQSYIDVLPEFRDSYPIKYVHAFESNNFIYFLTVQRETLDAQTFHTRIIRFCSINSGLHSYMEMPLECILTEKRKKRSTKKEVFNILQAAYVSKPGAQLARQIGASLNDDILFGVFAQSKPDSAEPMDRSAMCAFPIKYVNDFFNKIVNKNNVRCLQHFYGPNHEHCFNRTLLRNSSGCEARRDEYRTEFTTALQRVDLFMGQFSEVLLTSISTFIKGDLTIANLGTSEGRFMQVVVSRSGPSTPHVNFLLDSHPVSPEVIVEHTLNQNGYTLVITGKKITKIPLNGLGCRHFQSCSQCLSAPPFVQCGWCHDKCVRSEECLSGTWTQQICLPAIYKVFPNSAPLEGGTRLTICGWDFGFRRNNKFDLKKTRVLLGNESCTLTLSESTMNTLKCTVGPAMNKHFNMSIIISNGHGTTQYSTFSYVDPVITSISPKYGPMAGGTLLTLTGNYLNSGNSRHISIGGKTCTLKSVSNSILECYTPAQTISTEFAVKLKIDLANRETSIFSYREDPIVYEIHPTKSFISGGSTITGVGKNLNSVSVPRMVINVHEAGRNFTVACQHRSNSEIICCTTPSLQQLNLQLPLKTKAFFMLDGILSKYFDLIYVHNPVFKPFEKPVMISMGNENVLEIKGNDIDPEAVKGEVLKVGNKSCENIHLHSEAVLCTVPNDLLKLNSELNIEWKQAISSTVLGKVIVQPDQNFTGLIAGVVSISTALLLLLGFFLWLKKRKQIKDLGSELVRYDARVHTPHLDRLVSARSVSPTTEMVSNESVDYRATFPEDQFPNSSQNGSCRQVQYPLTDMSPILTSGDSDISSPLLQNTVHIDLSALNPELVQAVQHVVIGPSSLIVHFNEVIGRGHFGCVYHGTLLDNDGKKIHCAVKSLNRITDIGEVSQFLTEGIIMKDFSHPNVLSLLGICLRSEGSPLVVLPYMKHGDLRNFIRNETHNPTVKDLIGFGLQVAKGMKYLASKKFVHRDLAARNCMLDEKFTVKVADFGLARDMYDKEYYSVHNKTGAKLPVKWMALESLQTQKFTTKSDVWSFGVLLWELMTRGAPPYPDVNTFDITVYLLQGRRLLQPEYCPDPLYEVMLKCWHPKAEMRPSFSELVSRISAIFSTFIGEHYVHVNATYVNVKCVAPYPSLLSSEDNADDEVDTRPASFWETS

As for `CN1C(=O)COc2c1cnc1cc(F)c(Sc3nnc4ccc(-c5cnn(C)c5)nn34)cc21` [Embodiment 2, 8-fluoro-4-methyl-9-{[6-(1-methyl-1H-pyrazol-4-yl)-[1,2,4]triazolo[4,3-b]pyridazin-3-yl]sulfanyl}-2H-[1,4]oxazino[3,2-c]quinolin-3 (4H)-one], the figures for the IC50 (in test [1]; on c-Met kinase) were 2.8 nM and 2.2 nM, respectively.
For `CN1C(=O)COc2c1cnc1cc(F)c(C(F)(F)c3nnc4ccc(-c5cnn(C)c5)nn34)cc21` [Embodiment 1, 9-{difluoro(6-(1-methyl-1H-pyrazol-4-yl)-[1,2,4]triazolo[4,3-b]pyridazin-3-yl)methyl}-8-fluoro-4-methyl-2H-[1,4]oxazino[3,2-c]quinolin-3(4H)-one], the IC50 in test [1] stood at 1.2 nM; at c-Met kinase, 1 nM.
Consider `Cn1cc(-c2ccc3nnc(C(F)(F)c4ccc5ncccc5c4)n3n2)cn1` [JNJ-38877605, reference compound], for which the IC50 in test [1] came out at 4.7 nM; at c-Met kinase, 4.9 nM.
